These results are taken from US8716480B2, “7-aryl-1,2,4-triazolo[4,3-a]pyridine derivatives and their use as positive allosteric modulators of mGluR2 receptors” (Janssen Pharmaceuticals, Inc., priority 2009, dated 2014).

Like-named read-outs stand apart in the source and are kept apart here. Marks after values point to notes of the source that are not given here.

In data set [1] the test system is Male mice (C57BL/6). Description: Reversal of memantine-induced brain activation ([14C]2DG uptake) in mice. It is filed as in vivo. The settings on record: for L.A.D. (lowest active dose) for significant (p<0.05) reduction of 2DG uptake in the hippocampus compared to memantine response: mice, s.c., memantine 20 mg/kg s.c. As to the method: Reversal of Memantine-Induced Brain Activation in Mice NMDA receptor hypofunction is hypothesized to be involved in schizophrenia.
Autoradiographic assessment of radiolabeled [^14C]-2-deoxyglucose ([^14C]2DG) uptake is commonly used to investigate brain activation. In humans, cerebral blood flow is increased in specific brain regions after administration of a subanaesthetic dose of ketamine.
Male mice (C57BL/6, weight 24-28 g, fasted overnight; n=10 animals per group) were treated with vehicle or test compound (s.c.) in randomized order (t=0 min). Memantine (20 mg/kg, s.c.) was injected 30 min later (t=30 min). At t=45 min, [^14C]2DG (0.16 μCi/g) was administered intraperitoneally (i.p.), followed by a 45 min uptake period. Animals were decapitated (t=90 min), plasma glucose levels measured, the brain removed, rapidly frozen and stored at −20° C. until sectioned. Brain sections were exposed together to a precalibrated [^14C]standard on film, which was developed after four days of exposure. Local tissue [^14C]concentration (nCi/mg tissue equivalent—TEQ-) in each region of interest was determined.
Data was analyzed statistically using a two-way ANOVA analysis followed by post-hoc tests (memantine response versus reversal by the compound). The results are shown in table 5 below, expressed as lowest active dose (L.A.D.) required to exert a statistically significant (p<0.05) reduction of 2DG uptake in the hippocampus compared to memantine response.

In data set [2] the test system is male Wiga Wistar rats. The experiment in a line: Conditioned avoidance response (CAR) test. It is filed as in vivo. The note with it: criterion median avoidance latency >8 s; for ED50: Rattus norvegicus, po, read-out: ED50 CAR-Inh. The text has this: The apparatus consisted of an inner box surrounded by an outer box. The inner box was composed of four walls of transparent, synthetic material (length×width×height: 30×30×30 cm), an open top, and a grid floor made of 15 pairs of iron bars (2 mm diameter; 6 mm inter-bar distance). Odd and even bars were connected with a source of alternative current (1.0 mA; Coulbourn Instruments Solid State Shocker/Distributor), which could be interrupted by a switch. The outer box was composed of the same material (length×width×height: 40×40×36 cm), also with an open top, with a distance of 5 cm between the inner and outer box on all sides. To decrease the amount of environmental stimuli, three walls of the outer box were made non-transparent. The front wall was left transparent to allow the necessary inspection of the animal during the test. The upper edge of the outer and inner box served as a target for the rats on which to jump with fore- and hind-paws, respectively.
From their arrival in the laboratory on the experimental day, male Wiga Wistar rats (230±30 g) were housed in individual cages provided with bedding material.
Latency to avoidance was recorded. The median avoidance response obtained over the three experimental sessions for each rat were used for further calculations.

Data set [3] addresses T1, human mGluR2 receptor (Homo sapiens, UniProt Q14416).
T1 construct: expressed in transfected cells; host or cells: CHO cells (membranes)
Description: [35S]GTPγS binding assay (PAM). The note with it: in presence of glutamate at predetermined EC20, membranes from CHO cells transfected with human mGluR2; for EC50: read-out: GTPγS -hR2 PAM pEC50 (converted). The data set is classed as biochemical. As to the method: [^35S]GTPγS binding assay
The [^35S]GTPγS binding assay is a functional membrane-based assay used to study G-protein coupled receptor (GPCR) function whereby incorporation of a non-hydrolysable form of GTP, [^35S]GTPγS (guanosine 5′-triphosphate, labelled with […] ^35S), is measured.
CHO-cells were cultured to pre-confluence and stimulated with 5 mM butyrate for 24 h, prior to washing in PBS, and then collected by scraping in homogenisation buffer (50 mM Tris-HCl buffer, pH 7.4, 4° C.). Cell lysates were homogenized briefly using an ultra-turrax homogenizer. The homogenate was centrifuged at 16,000 RPM (Sorvall RC-5C plus rotor SS-34) for 10 minutes and the supernatant discarded. The pellet was resuspended in 5 mM Tris-HCl, pH 7.4 and centrifuged again (18,000 RPM, 20 min, 4° C.). The final pellet was resuspended in 50 mM Tris-HCl, pH 7.4 and stored at −80° C. in appropriate aliquots before use. Protein concentration was determined by the Bradford method (Bio-Rad, USA) with bovine serum albumin as standard.
Measurement of mGluR2 positive allosteric modulatory activity of test compounds was performed as follows. Test compounds and glutamate were diluted in assay buffer containing 10 mM HEPES acid, 10 mM HEPES salt, pH 7.4, 100 mM NaCl, 3 mM MgCl2 and 10 μM GDP. Human mGlu2 receptor-containing membranes were thawed on ice and diluted in assay buffer supplemented with 14 μg/ml saponin. Membranes were pre-incubated with compound alone or together with a predefined (˜EC20) concentration of glutamate (PAM assay) for 30 min at 30° C. After addition of [^35S]GTPγS (f.c. 0.1 nM) microplates were shaken briefly and further incubated to allow [^35S]GTPγS incorporation on activation (30 minutes, 30° C.). Final assay mixtures contained 7 μg of membrane protein in 10 mM HEPES acid, 10 mM HEPES salt, pH 7.4, 100 mM NaCl, 3 mM MgCl2, 10 μM GDP and 10 μg/ml saponin. Total reaction volume was […] Reactions were terminated by rapid filtration through Unifilter-96 GF/B filter plates (Packard, Meriden, Conn.) using a 96-well Packard filtermate harvester. Filters were washed 6 times with ice-cold 10 mM NaH2PO4/10 mM Na2HPO4, pH 7.4. Filters were then air-dried, and 40 μl of liquid scintillation cocktail (Microscint-O) was added to each well. Membrane-bound radioactivity was counted in a Microplate Scintillation and Luminescence Counter from Packard.
obtained in the presence of EC20 of mGluR2 agonist glutamate to determine positive allosteric modulation (PAM)—were generated using the Lexis software interface (developed at J&J). Data were calculated as % of the control glutamate response, defined as the maximal response that is generated upon addition of glutamate alone. Sigmoid concentration-response curves plotting these percentages versus the log concentration of the test compound were analyzed using non-linear regression analysis. The concentration producing half-maximal effect is then calculated as EC50.
All compounds were tested in presence of mGluR2 agonist, glutamate at a predetermined EC20 concentration, to determine positive allosteric modulation (GTPγS-PAM). pEC50 values were calculated from a concentration-response experiment of at least 10 concentrations.
For orientation: GTPγS is a poorly hydrolysed GTP analogue; its binding reports G protein activation.

For data set [4], the system named is male NMRI mice. Description: Phencyclidine (PCP)-induced hyperlocomotion in mice. The data set is classed as in vivo. The settings on record: mice, PCP 5 mg/kg s.c., criterion total distance <5500 counts, not marked as oral; for ED50: Mus musculus, read-out: ED50 PCP-Inh. The protocol: (§1) On the day of experiments, the mice were brought into the procedural room. They were housed individually and allowed to acclimate for at least a half hour prior to testing. Although the studies were conducted during the light cycle (from 8:00 to 16:00 h), the procedure room was only sparsely lit (3 to 30 LUX) to provide better contrast for the video tracking. Local lighting was used for the injection procedures. During each trial, an individual mouse was placed in an open field arena (grey PVC cylinder with a height of 40 cm and a diameter of 22.5 cm). Each arena was placed on an infrared LED (8×8 LEDs)-lit box (white PVC squared box; 40×40 cm^2; height 12.5 cm). Each mouse was placed in the center of the arena and allowed to explore freely for 30 min. After each trial, the arena was cleaned with a wet and subsequently with a dry cleaning cloth. An infrared sensitive tube camera and a white light source (in arena: 4-7 LUX) were mounted to the ceiling above the observation chamber to record and input activity to a computer. Animal behavior was recorded and analyzed using the Noldus Ethovision XT Video Tracking System (Version 3.1; Noldus, Wageningen, The Netherlands). The total distance traveled (cm) was calculated. Data were then exported to data management systems for further analysis and reporting.
Test compound or solvent was administered at a pre-defined time before measurement (standard: 30 min) to male NMRI mice that were challenged with phencyclidine (PCP; 5 mg/kg, s.c.) 30 min before measurement. Activity was measured for a period of 30 min.

Data set [5] relates to male NMRI mice. Description: d-Amphetamine-induced hyperlocomotion in mice. The data set is classed as in vivo. The note with it: Mus musculus, d-amphetamine 5 mg/kg s.c., compound administered orally, read-out: ED50 Amp.-Inh. The protocol:
as §1, with “An infrared sensitive tube camera and a white light source (in arena: 4-7 LUX) were mounted to the ceiling above the observation chamber to record and input activity to a computer.” left out, “Data were then exported to data management systems for further analysis and reporting.” left out
Test compound or solvent was administered at a pre-defined time before measurement (standard: 30 min) to male NMRI mice that were challenged with d-amphetamine (5 mg/kg, s.c.) 30 min before measurement. Activity was measured for a period of 30 min.

In data set [6] the test system is rats. Description: Sleep wake electroencephalography (SW-EEG) in rats. It is filed as in vivo. The settings on record: 3 mg/kg, p.o. The text has this:
Sleep Wake Electroencephalography (SW-EEG) in Rats SW-EEG analyses are a highly sensitive read-out of a compound's central functional activity that may provide additional insight in the potential therapeutic application (i.e. via drug classification fingerprinting). […] Internal efforts have confirmed that this effect is mGlu2 receptor-mediated, i.e. is absent in mGlu2 KO mice. Sleep abnormalities are often associated with CNS disorders; as such, the potential use of mGlu2 modulators could also have benefit in the treatment of CNS disorders in which (REM) sleep aberrations are manifested. More specifically, the combination of a persistent reduction in REM occurrence and an increase in REM latency is one of the key features of the typical SW architecture fingerprint of most clinically active antidepressants.
We investigated the effects of oral administration of compounds according to the invention on SW organization in rats. The mGlu2/3 receptor agonist LY404039 was also evaluated to allow comparison.

T1 sequence (Q14416 19-872): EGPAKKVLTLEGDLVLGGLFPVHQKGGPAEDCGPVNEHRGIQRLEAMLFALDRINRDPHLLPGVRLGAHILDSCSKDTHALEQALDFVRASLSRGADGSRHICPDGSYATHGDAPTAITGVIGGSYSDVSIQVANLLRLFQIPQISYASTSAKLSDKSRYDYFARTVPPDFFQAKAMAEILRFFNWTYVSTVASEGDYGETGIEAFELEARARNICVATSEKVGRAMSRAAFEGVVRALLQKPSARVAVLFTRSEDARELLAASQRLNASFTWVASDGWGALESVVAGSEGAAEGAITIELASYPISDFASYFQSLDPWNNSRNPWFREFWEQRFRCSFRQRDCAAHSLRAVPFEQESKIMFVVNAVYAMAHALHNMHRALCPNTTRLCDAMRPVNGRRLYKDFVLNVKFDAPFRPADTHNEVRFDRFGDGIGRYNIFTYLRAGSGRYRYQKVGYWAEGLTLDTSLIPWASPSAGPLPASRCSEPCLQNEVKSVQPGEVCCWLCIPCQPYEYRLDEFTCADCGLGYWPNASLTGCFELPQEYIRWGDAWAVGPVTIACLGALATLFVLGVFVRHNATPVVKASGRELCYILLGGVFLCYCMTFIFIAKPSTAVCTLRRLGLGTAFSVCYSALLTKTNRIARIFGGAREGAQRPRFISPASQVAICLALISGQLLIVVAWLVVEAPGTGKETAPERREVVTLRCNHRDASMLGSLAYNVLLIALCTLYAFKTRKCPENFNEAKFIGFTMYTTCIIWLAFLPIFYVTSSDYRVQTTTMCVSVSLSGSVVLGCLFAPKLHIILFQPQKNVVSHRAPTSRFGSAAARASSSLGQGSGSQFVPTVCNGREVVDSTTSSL

Broadly, the melting point is the temperature, or range, at which the solid turns liquid. Usually ED50 stands for the dose at which the effect has come halfway, by size or by number of responders. For the molecule `Cc1cc(Oc2ccc(-c3ccn4c(CC(F)(F)F)nnc4c3Cl)cc2F)ccn1` [Co. No. 1, 7-[3-Fluoro-4-(2′-methyl-pyridin-4-yloxy)-phenyl]-8-chloro-3-(2,2,2-trifluoro-ethyl)-1,2,4-triazolo[4,3-a]pyridine], the melting point is 130.1 °C. Further, the “L.A.D. (lowest active dose) for significant (p<0.05) reduction of 2DG uptake in the hippocampus compared to memantine response” value in data set [1] is on record as above 10 mg/kg. For the same molecule, the ED50 in data set [2] (compound administered orally) was found to be 21.4 mg/kg. Further, the ED50 in data set [2] (not marked as oral) amounted to 12.3 mg/kg. Besides, the EC50 in data set [3] is 0.209 µM. In addition, the ED50 in data set [4] was 18.7 mg/kg.
As to `Cc1cc(Oc2ccc(-c3ccn4c(CC5CC5)nnc4c3C(F)(F)F)cc2F)ccn1` [Co. No. 2, 7-[3-Fluoro-4-(2′-methyl-pyridin-4-yloxy)-phenyl]-8-trifluoromethyl-3-cyclopropylmethyl-1,2,4-triazolo[4,3-a]pyridine], the “L.A.D. (lowest active dose) for significant (p<0.05) reduction of 2DG uptake in the hippocampus compared to memantine response” value in data set [1] was 10 mg/kg. Also, the ED50 came to 21.4 mg/kg in data set [2] (compound administered orally), 18.7 mg/kg in data set [2] (not marked as oral), 12.3 mg/kg in data set [4] and 28.3 mg/kg in data set [5]. In addition, the EC50 in data set [3] was 0.0501 µM.
As to `Cc1cc(Oc2ccc(-c3ccn4c(CC5CC5)nnc4c3Cl)cc2F)ccn1` [Co. No. 15], the “L.A.D. (lowest active dose) for significant (p<0.05) reduction of 2DG uptake in the hippocampus compared to memantine response” value in data set [1] is listed as “≦10 mg/kg”. Besides, the “ED50 CAR-Inh.” value in data set [2] (compound administered orally) is “≧40*^ mg/kg”. In addition, in data set [3], the “GTPγS -hR2 PAM pEC50” value is reported as 6.65. Moreover, the “ED50 PCP-Inh.” value in data set [4] amounted to 20 mg/kg.
In the case of `N[C@@]1(C(=O)O)CS(=O)(=O)[C@H]2[C@H](C(=O)O)[C@H]21` [LY404039, reference compound], the “effect on memantine-induced brain glucose metabolism / 2DG uptake (in words)” value in data set [1] (mouse brain) was “inhibited”. The “effect on REM sleep (in words)” value in data set [6] is recorded as “affect REM sleep”.
